# Measured values reported in paper PMC5114273, “Activity of Scorpion Venom-Derived Antifungal Peptides against Planktonic Cells of Candida spp. and Cryptococcus neoformans and Candida albicans Biofilms” (Frontiers in Microbiology, 2016).
# Ends that are not written are not given here.
# Tests used:
# [1] = system: Candida spp. and C. neoformans; experiment: Broth microdilution antifungal assay, summary over the strains tested; type: cell-based, Candida spp.; Cryptococcus neoformans; conditions: data not shown
# From the text: (§1) Candida albicans strain SC 5314 (ATCC MYA-2876) was provided by Dr. Joshua Nosanchuk (New York, NY, USA). C. glabrata ATCC 90030, C. parapsilosis ATCC 22019, and C. tropicalis ATCC 750 were provided by Dr. Érika Kioshima (Universidade Estadual de Maringá, Paraná, Brazil). C. neoformans var. grubii strain H99 (serotype A, ATCC 208821) was provided by Dr. John Perfect (Durham, NC, USA). C. neoformans var. neoformans B3501 (serotype D, ATCC 34873) was obtained from ATCC (Manassas, VA, USA). All strains were stored as frozen stocks in 35% glycerol at -80°C. Before each experiment, all Candida spp. strains were grown in Sabouraud’s dextrose broth overnight at 30°C with agitation. C. neoformans strains were grown in the same conditions for 24 h. Fungal cells were collected by centrifugation, washed three times in phosphate buffered saline (PBS) (137 mM NaCl, 2.7 mM KCl, 10 mM Na2HPO4, 2 mM KH2PO4) and inoculated in Roswell Park Memorial Institute (RPMI) 1640 medium supplemented with L-glutamine and buffered to pH 7.0 with 165 mM 3-(N-morpholino)propanesulfonic acid for experiments described below.
# In vitro antifungal assays were performed according to broth microdilution susceptibility test from Clinical and Laboratory Standards Institute (CLSI) M27-A3 guidelines with some modifications. Briefly, twofold serial dilutions of each peptide were prepared in 96-well polystyrene microplates to a final volume of 50 μL. Amphotericin B (Amp B; A2942, Sigma-Aldrich), a known antifungal drug, was used as a positive control. Final concentrations of each peptide and Amp B ranged from 100 to 0.78 μM and 16 to 0.03 μg/mL, respectively, except in tests with C. glabrata and C. parapsilosis, where the final peptide concentration ranged from 400 to 0.78 μM. In each plate, wells were included without peptide as a growth control. Then, 50 μL of the adjusted inoculum in RPMI-1640 medium were added to each well to a final concentration of 2 × 10^3 cells/mL for Candida spp. and 10^4 cells/mL for C. neoformans strains. The plates were incubated at 37°C for 24 and 48 h, respectively. […]
# human erythrocytes = experiment: Hemolytic assay; type: cell-based; conditions: 1 h, 540 nm; for Hemolysis: all the tested concentrations (100 to 0.78 μM), 3% hematocrit in PBS
# From the text: Considering the potential use of the AMPs as treatment against pathogens, even if in a more distant future, some of their properties against host cells should be addressed. To achieve this goal, we have performed hemolytic assay to evaluate if these molecules are toxic or harmless to red blood cells. Further, we have also tested the possible cytotoxicity of those peptides against other mammalian cell types by following the cell viability score after treatment. The solution of human red blood cells was treated with the peptide at levels ranging from 100 to 0.78 μM. Whole human blood was collected from healthy donors in vials with ethylenediaminetetraacetic acid (EDTA). The red blood cells were separated by centrifugation and resuspended in PBS. After the centrifugation (800 g, 5 min at 4 ± 1°C) the supernatant was removed and the red blood cells pellet was resuspended to a 3% hematocrit in sterile water (considered as 100% hemolysis) and PBS (taken as blank for spectrophotometric measurement). Fifty microliters of the 3% cell suspension in PBS were added to different final concentrations of the peptide (v/v) in a 96-well polystyrene microplate and then incubated for 1 h ([Nahar et al., 2008]; [Zhao et al., 2009]; [Qi et al., 2010]). The microplates were centrifuged and the supernatant was collected and analyzed at 540 nm using a microplate spectrophotometer. The percentage of hemolysis was calculated relative to the positive control as performed by [Nahar et al. (2008)]. The procedures were approved by the Ethics Committee on Human Research of Faculty of Medicine/University of Brasília (UnB) and conform to FDA standards (UnBDoc no. 66704/2016).
# [2] = Circular dichroism, α-helix content; type: physicochemical; conditions: CD, 0.2 mg/mL, 37°C, from [θ]208
# Procedure: Circular dichroism (CD) assays were carried out using Jasco J-815 spectropolarimeter equipped with a Peltier-type temperature controller. Peptides (0.2 mg/mL) were analyzed in water at 37°C in absence or the presence of trifluoroethanol (TFE) (10, 30, and 50%). The mean spectrum of three consecutive experiments was corrected for the baseline buffer contribution. The observed ellipticities were converted into molar ellipticity ([θ]) based on molecular mass per residue of 115 Da ([Adler et al., 1973]). The α helix secondary structure content (fθ) was estimated considering the values of [θ]208 nm as a function of TFE concentration using the following equation ([Greenfield and Fasman, 1969]): […]
# [3] = system: C. parapsilosis (ATCC 22019); experiment: microbe, parasite or virus in culture; type: cell-based, Candida parapsilosis; conditions: RPMI-1640 pH 7.0, 2 × 10^3 cells/mL, 37°C, 24 h; peptides 400 to 0.78 μM; at least three experiments; read-out: Minimum inhibitory concentration, C. parapsilosis (ATCC 22019)
# From the text: as §1
# (§2) In vitro antifungal assays were performed according to broth microdilution susceptibility test from Clinical and Laboratory Standards Institute (CLSI) M27-A3 guidelines with some modifications. Briefly, twofold serial dilutions of each peptide were prepared in 96-well polystyrene microplates to a final volume of 50 μL. Amphotericin B (Amp B; A2942, Sigma-Aldrich), a known antifungal drug, was used as a positive control. Final concentrations of each peptide and Amp B ranged from 100 to 0.78 μM and 16 to 0.03 μg/mL, respectively, except in tests with C. glabrata and C. parapsilosis, where the final peptide concentration ranged from 400 to 0.78 μM. In each plate, wells were included without peptide as a growth control. Then, 50 μL of the adjusted inoculum in RPMI-1640 medium were added to each well to a final concentration of 2 × 10^3 cells/mL for Candida spp. and 10^4 cells/mL for C. neoformans strains. The plates were incubated at 37°C for 24 and 48 h, respectively. The strains of C. neoformans were also incubated with shaking (200 rpm). […] The experiments were performed at least three times on separate dates.
# [4] = system: C. neoformans (B3501 serotype D); experiment: microbe, parasite or virus in culture; type: cell-based, Cryptococcus neoformans var. neoformans; conditions: RPMI-1640 pH 7.0, 10^4 cells/mL, 37°C, 48 h, shaking 200 rpm; at least three experiments; read-out: Minimum inhibitory concentration, C. neoformans (B3501 serotype D)
# From the text: as §1, §2
# C. glabrata (ATCC 90030) = experiment: microbe, parasite or virus in culture; type: cell-based, Candida glabrata; conditions: RPMI-1640 pH 7.0, 2 × 10^3 cells/mL, 37°C, 24 h; peptides 400 to 0.78 μM; at least three experiments; read-out: Minimum inhibitory concentration, C. glabrata (ATCC 90030)
# From the text: as §1, §2
# [5] = system: C. neoformans (H99 serotype A); experiment: microbe, parasite or virus in culture; type: cell-based, Cryptococcus neoformans var. grubii; conditions: RPMI-1640 pH 7.0, 10^4 cells/mL, 37°C, 48 h, shaking 200 rpm; at least three experiments; read-out: Minimum inhibitory concentration, C. neoformans (H99 serotype A)
# From the text: as §1, §2
# C. tropicalis (ATCC 750) = experiment: microbe, parasite or virus in culture; type: cell-based, Candida tropicalis; conditions: RPMI-1640 pH 7.0, 2 × 10^3 cells/mL, 37°C, 24 h; complete inhibition of visible growth; at least three experiments; read-out: Minimum inhibitory concentration, C. tropicalis (ATCC 750)
# From the text: as §1, §2
# C. albicans (SC5314) = experiment: microbe, parasite or virus in culture; type: cell-based, Candida albicans; conditions: RPMI-1640 pH 7.0, 2 × 10^3 cells/mL, 37°C, 24 h; complete inhibition of visible growth; at least three experiments; read-out: Minimum inhibitory concentration, C. albicans (SC5314)
# From the text: as §1, §2
# [6] = system: peritoneal macrophages of BALB/c mice; experiment: Cytotoxic test using peritoneal macrophages (LDH release); type: cell-based, mouse; conditions: 24 h; for Viability of peritoneal macrophages: whole range of peptide concentrations
# Procedure: BALB/c mice were injected with thioglycolate 72 h before peritoneal macrophages were harvested. They were diluted to a concentration of 10^6 cell/mL in RPMI-1640 supplemented with penicillin/streptomycin (100 U/mL, 100 µg/mL), 2 mM L-glutamine, 2 mM non-essential amino acids, 1 mM sodium pyruvate (all reagents from Sigma-Aldrich, St Louis, MO, USA) and 10% fetal bovine serum (FBS), and incubated in 96-well polystyrene microplates at 37°C, 5% CO2 for 24 h. The peptides were added then and cells were further incubated for 24 h as described previously ([Cruz et al., 2005]). Three independent experiments were performed. Cytotoxic activity was evaluated by the release of cytoplasmic enzyme lactate dehydrogenase due to cell lysis using the Cytotox kit (Promega). Briefly, at the end of the incubation period, supernatants were collected, the adhered cells were washed and the toxicity was determined according to the manufacturer’s protocol. The procedures were approved by the Ethics Committee on Animal Research of Institute of Biology (UnBDOC 52657/2011)/University of Brasília (UnB).
Substance,MIC [3],MIC [4],MIC (C. glabrata (ATCC 90030)),MIC [5],MIC (C. tropicalis (ATCC 750)),MIC (C. albicans (SC5314)),also measured
"EEDDLLGFSEEDLKAIKEHRAKNA-NH2 [ToAcP, anionic peptide from T. obscurus, LT576031]",–,–,–,–,–,–,Antifungal activity in the tested concentrations ([1]; Candida spp. and C. neoformans): did not present antifungal activity
"FFGTLFKLLSKLIPGLMKLFSKLLER-NH2 [ToAP2S1, modified analog of ToAP2, C-terminally amidated]",–,–,–,–,–,–,"Antifungal activity in the tested concentrations ([1]; C. albicans, C. glabrata and C. neoformans H99): did not show antifungal activity; Hemolysis curve compared with ToAP2 (human erythrocytes; with concentrations up to 25 μM): higher hemolysis curve; α-Helix content (%), TFE 10% ([2]; TFE 10%): 22.9%; α-Helix content (%), TFE 30% ([2]; TFE 30%): 24.3%; α-Helix content (%), TFE 50% ([2]; TFE 50%): 24.7%; α-Helix content (%), water ([2]; water, mean spectrum of three experiments): 16.5%"
"FFSLIPSLIGGLVSAIK-NH2 [ToAP4, NDBP subfamily 4 peptide from T. obscurus, amidated]",–,–,–,–,–,–,Antifungal activity in the tested concentrations ([1]; Candida spp. and C. neoformans): has not shown antifungal activity
FIGMIPGLIGGLISAFK-NH2 [ToAP1],200 µM,12.5 µM,>400 µM,25 µM,12.5 µM,50 µM,Hemolysis (human erythrocytes): lower than 50%; Viability of peritoneal macrophages [6]: higher viability
FIGMIPGLIGGLISAIK-NH2 [ToAP3],100 µM,25 µM,>400 µM,100 µM,12.5 µM,25 µM,–
FLGMIPGLIGGLISAFK-NH2 [NDBP-4.23],100 µM,12.5 µM,>400 µM,25 µM,6.25 µM,50 µM,"Hemolysis (human erythrocytes): lower than 50%; Concentrations showing low cytotoxicity ([6]; threshold of acceptable cytotoxicity 50% viability, three independent experiments): < 25 µM"
GILGKIWEGVKSLI [NDBP-5.8],200 µM,50 µM,>400 µM,100 µM,25 µM,100 µM,–
ILSAIWSGIKSLF-NH2 [NDBP-5.7],>400 µM,12.5 µM,>400 µM,25 µM,25 µM,25 µM,Hemolysis percent (human erythrocytes; in concentrations up to 50 μM): higher than 50%; Viability of peritoneal macrophages [6]: higher viability
